Where two headings read alike, the source gives them in different places.

Data on 24 compounds can be found in patent US11161850B2, “Fused pyrazine derivatives as A2A / A2B inhibitors” (Incyte Corporation, priority 2018, dated 2021).

The target in one test is Adenosine A2A (Homo sapiens (Human), UniProt P29274). Kind of test: A2A Tag-Lite HTRF assay. It counts as binding. An excerpt:
Example C. A2A Tag-Lite® HTRF Assay

The target of test [1] is human adenosine A2B receptor (Homo sapiens (Human), UniProt P29275). The test can be described thus: Adenosine A2B Receptor Cyclic AMP GS Assay. It counts as cell-based. The note with it: HEK-293 cells expressing human A2B, agonist NECA 12 nM. The method, then: Example B. Adenosine A2B Receptor Cyclic AMP GS Assay
human adenosine A2B receptor, sequence (P29275 whole entry): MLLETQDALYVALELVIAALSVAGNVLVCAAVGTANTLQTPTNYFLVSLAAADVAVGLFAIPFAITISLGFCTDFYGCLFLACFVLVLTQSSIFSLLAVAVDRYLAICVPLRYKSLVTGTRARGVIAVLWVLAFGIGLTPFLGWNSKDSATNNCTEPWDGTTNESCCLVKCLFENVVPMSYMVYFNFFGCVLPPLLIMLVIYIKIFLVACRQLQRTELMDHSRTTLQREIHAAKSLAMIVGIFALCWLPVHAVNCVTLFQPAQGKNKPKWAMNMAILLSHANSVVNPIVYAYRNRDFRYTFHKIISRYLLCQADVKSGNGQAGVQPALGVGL
Stably transfected HEK-293 cells expressing the human adenosine A2B receptor (Perkin Elmer) were maintained in MEM culture medium with 10% FBS and 100 μg/mL Geneticin (Life Technologies). 18 to 24 hours prior to assay, geneticin was removed from culture. The cisbio cAMP-GS Dynamic kit utilizing the FRET (Fluorescence Resonance Energy Transfer) technology was used to measure cAMP accumulation in the cells. Compounds of the present disclosure at an appropriate concentration were mixed with 10000 cells/well in white 96 well half area plates (Perkin Elmer) for 30 min at room temperature gently shaking. Agonist, NECA (R&D Technologies) at 12 nM was added to each well for 60 min at room temperature gently shaking. Detection reagents, d2-labeled cAMP (acceptor) and anti-cAMP cryptate (donor) were added to each well for 60 min at rt gently shaking. Plates were read on Pherastar (BMG Labtech), fluorescence ratio 665/620 was calculated and EC50 determination was performed by fitting the curve of percent of control versus the log of the compound concentration using GraphPad Prism.

Where [2] appears, read: Tag-Lite Adenosine A2A labeled cells, fluorescent ligand 12.5 nM, read-out: A2A_Ki.
The mark [3] stands for this setting: read-out: A2A_Ki, Tag-Lite Adenosine A2A labeled cells, fluorescent ligand 12.5 nM.

Adenosine A2A, sequence (P29274 whole entry): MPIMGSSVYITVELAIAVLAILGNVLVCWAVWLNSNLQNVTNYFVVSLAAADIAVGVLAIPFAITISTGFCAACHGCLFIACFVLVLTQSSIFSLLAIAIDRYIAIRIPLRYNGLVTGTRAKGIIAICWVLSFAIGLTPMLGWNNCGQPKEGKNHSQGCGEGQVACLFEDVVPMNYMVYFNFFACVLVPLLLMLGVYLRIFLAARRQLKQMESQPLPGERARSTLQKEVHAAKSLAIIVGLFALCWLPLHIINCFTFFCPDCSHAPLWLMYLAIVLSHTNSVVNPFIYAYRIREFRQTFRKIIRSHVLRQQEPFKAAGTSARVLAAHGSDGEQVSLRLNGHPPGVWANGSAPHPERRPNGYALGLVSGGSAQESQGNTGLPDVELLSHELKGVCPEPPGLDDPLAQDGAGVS

Take `N#Cc1cccc(-c2nc(N)c3nc(S(=O)(=O)c4ccccc4)nn3c2-c2ccncn2)c1` [Example 60, 3-(8-Amino-2-(phenylsulfonyl)-5-(pyrimidin-4-yl)-[1,2,4]triazolo[1,5-a]pyrazin-6-yl)benzonitrile]: at Adenosine A2A (setting [2]), the Ki is less than 10 nM. In test [1] (A2B_cAMP_EC50 (nM)), this compound gave an EC50 of 10 to 100 nM.

`N#Cc1cccc(-c2cn3nc(Cc4ncccc4Nc4cnn(Cc5ccncc5)c4)nc3c(N)n2)c1F` [Example 120, 3-(8-Amino-2-((3-((1-(pyridin-4-ylmethyl)-1H-pyrazol-4-yl)amino)pyridin-2-yl)methyl)-[1,2,4]triazolo[1,5-a]pyrazin-6-yl)-2-fluorobenzonitrile]: the Ki on Adenosine A2A (setting [2]) is less than 10 nM. The compound also had an EC50 in test [1] (A2B_cAMP_EC50 (nM)) of 10 to 100 nM.

Consider `CN[C@H]1C[C@H](n2cc(-c3cccc(F)c3Cc3nc4c(N)nc(-c5cccc(C#N)c5F)cn4n3)cn2)C1` [Example 116, 3-(8-amino-2-(2-fluoro-6-(1-((trans)-3-(methylamino)cyclobutyl)-1H-pyrazol-4-yl)benzyl)-[1,2,4]triazolo[1,5-a]pyrazin-6-yl)-2-fluorobenzonitrile], for which, on Adenosine A2A (setting [2]), the Ki is less than 10 nM. This compound yielded an EC50 in test [1] (A2B_cAMP_EC50 (nM)) of 10 to 100 nM.

With `N#Cc1cccc(-c2nc(N)c3nc(C(O)c4ccccc4F)nn3c2-c2ccncn2)c1` (single isomer, unassigned) [Example 56, 3-(8-Amino-2-((2-fluorophenyl)(hydroxy)methyl)-5-(pyrimidin-4-yl)-[1,2,4]triazolo[1,5-a]pyrazin-6-yl)benzonitrile], the Ki at Adenosine A2A (setting [3]) is less than 10 nM. The EC50 in test [1] (read-out: A2B_cAMP_EC50) was less than 10 nM.

`CN1CCC2(CN(Cc3cccc(F)c3Cc3nc4c(N)nc(-c5cccc(C#N)c5F)cn4n3)C2)C1=O` [Example 85, 3-(8-amino-2-(2-fluoro-6-((6-methyl-5-oxo-2,6-diazaspiro[3.4]octan-2-yl)methyl)benzyl)-[1,2,4]triazolo[1,5-a]pyrazin-6-yl)-2-fluorobenzonitrile]: the Ki on Adenosine A2A (setting [2]) was less than 10 nM. Moreover, the EC50 in test [1] (A2B_cAMP_EC50 (nM)) is 10 to 100 nM.

In the case of `N#Cc1cccc(-c2nc(N)c3nc(C(O)c4ccccc4)nn3c2-c2ccncn2)c1` (stereo not drawn) [Example 59, 3-(8-Amino-2-(hydroxy(phenyl)methyl)-5-(pyrimidin-4-yl)-[1,2,4]triazolo[1,5-a]pyrazin-6-yl)benzonitrile], the Ki on Adenosine A2A (setting [2]) is less than 10 nM. The compound also registered an EC50 in test [1] (A2B_cAMP_EC50 (nM)) of 10 to 100 nM.

Take `N#Cc1cccc(-c2nc(N)c3nc(C(O)c4c(F)cccc4F)nn3c2-c2ccncn2)c1` (single isomer, unassigned) [Example 50, 3-(8-Amino-2-((2,6-difluorophenyl)(hydroxy)methyl)-5-(pyrimidin-4-yl)-[1,2,4]triazolo[1,5-a]pyrazin-6-yl)benzonitrile]: the Ki at Adenosine A2A (setting [3]) was less than 10 nM. For the same compound, in test [1] (read-out: A2B_cAMP_EC50), the EC50 was less than 10 nM.

In the case of `Cc1cc(-c2c(-c3cccc(C#N)c3F)nc(N)c3nc(C(O)c4c(F)cccc4F)nn23)cc(C)n1` (stereo not drawn) [Example 126, 3-(8-amino-2-((2,6-difluorophenyl)(hydroxy)methyl)-5-(2,6-dimethylpyridin-4-yl)-[1,2,4]triazolo[1,5-a]pyrazin-6-yl)-2-fluorobenzonitrile], the Ki on Adenosine A2A (setting [2]) was less than 10 nM. In test [1] (A2B_cAMP_EC50 (nM)), the EC50 was in the range of 10 to 100 nM.

Turning to `Cn1ncc(NCc2cccc(F)c2Cc2nc3c(N)nc(-c4cccc(C#N)c4)c(-c4ccncn4)n3n2)n1` [Example 74, 3-(8-amino-2-(2-fluoro-6-(((2-methyl-2H-1,2,3-triazol-4-yl)amino)methyl)benzyl)-5-(pyrimidin-4-yl)-[1,2,4]triazolo[1,5-a]pyrazin-6-yl)benzonitrile], the Ki on Adenosine A2A (setting [2]) was less than 10 nM. Besides, the EC50 in test [1] (A2B_cAMP_EC50 (nM)) was less than 10 nM.

With `N#Cc1cccc(-c2nc(N)c3nc(Cc4c(F)cccc4CN4CC(C(=O)O)C4)nn3c2-c2ccncn2)c1` [Example 31, 1-(2-((8-Amino-6-(3-cyanophenyl)-5-(pyrimidin-4-yl)-[1,2,4]triazolo[1,5-a]pyrazin-2-yl)methyl)-3-fluorobenzyl)azetidine-3-carboxylic Acid], the Ki on Adenosine A2A (setting [2]) is less than 10 nM. Besides, the EC50 in test [1] (A2B_cAMP_EC50 (nM)) lay in the range of 10 to 100 nM.

For the compound `N#Cc1cccc(-c2nc(N)c3nc(Cc4cccn5ccnc45)nn3c2-c2ccncn2)c1` [Example 45, 3-(8-Amino-2-(imidazo[1,2-a]pyridin-8-ylmethyl)-5-(pyrimidin-4-yl)-[1,2,4]triazolo[1,5-a]pyrazin-6-yl)benzonitrile], the Ki on Adenosine A2A (setting [2]) is less than 10 nM. For the same compound, the EC50 in test [1] (A2B_cAMP_EC50 (nM)) is less than 10 nM.

As for `CN(C)Cc1cccc(F)c1C(O)c1nc2c(N)nc(-c3cccc(C#N)c3)c(-c3ccncn3)n2n1` (single isomer, unassigned) [Example 101, 3-(8-amino-2-((2-((dimethylamino)methyl)-6-fluorophenyl)(hydroxy)methyl)-5-(pyrimidin-4-yl)-[1,2,4]triazolo[1,5-a]pyrazin-6-yl)benzonitrile], at Adenosine A2A (setting [3]), the Ki was less than 10 nM. Besides, the EC50 in test [1] (A2B_cAMP_EC50 (nM)) is less than 10 nM.

On to `CCN(C)C(=O)c1cc2c(N)nc(-c3cccc(C#N)c3)c(-c3ccncn3)n2n1` [Example 11, 4-Amino-6-(3-cyanophenyl)-N-ethyl-N-methyl-7-(pyrimidin-4-yl)pyrazolo[1,5-a]pyrazine-2-carboxamide], for which, at Adenosine A2A (setting [2]), the Ki was less than 10 nM. For the same compound, in test [1] (A2B_cAMP_EC50 (nM)), the EC50 is less than 10 nM.

In the case of `N#Cc1cccc(-c2nc(N)c3nc(Cn4cccc5ccnc4-5)nn3c2-c2ccncn2)c1` [Example 33, 3-(2-((7H-pyrrolo[2,3-b]pyridin-7-yl)methyl)-8-amino-5-(pyrimidin-4-yl)-[1,2,4]triazolo[1,5-a]pyrazin-6-yl)benzonitrile], at Adenosine A2A (setting [2]), the Ki was less than 10 nM. The compound also yielded an EC50 in test [1] (A2B_cAMP_EC50 (nM)) of less than 10 nM.

Turning to `CCn1nncc1-c1c(-c2cccc(C#N)c2)nc(N)c2cc(Cc3ccccn3)nn12` [Example 36, 3-(4-Amino-7-(1-ethyl-1H-1,2,3-triazol-5-yl)-2-(pyridin-2-ylmethyl)pyrazolo[1,5-a]pyrazin-6-yl)benzonitrile], at Adenosine A2A (setting [2]), the Ki is less than 10 nM. The same compound displayed an EC50 in test [1] (A2B_cAMP_EC50 (nM)) of less than 10 nM.

In the case of `Cc1nc(C(C)O)c(-c2c(-c3cccc(C#N)c3)nc(N)c3cc(Cc4ccccn4)nn23)o1` (stereo not drawn) [Example 34, 3-(4-Amino-7-(4-(1-hydroxyethyl)-2-methyloxazol-5-yl)-2-(pyridin-2-ylmethyl)pyrazolo[1,5-a]pyrazin-6-yl)benzonitrile], on Adenosine A2A (setting [2]), the Ki is less than 10 nM. In addition, in test [1] (A2B_cAMP_EC50 (nM)), the EC50 is 10 to 100 nM.

On to `N#Cc1cccc(-c2nc(N)c3cc(C(=O)N4CCC4)nn3c2-c2ccncn2)c1` [Example 7, 3-(4-Amino-2-(azetidine-1-carbonyl)-7-(pyrimidin-4-yl)pyrazolo[1,5-a]pyrazin-6-yl)benzonitrile], for which the Ki on Adenosine A2A (setting [2]) was less than 10 nM. In test [1] (A2B_cAMP_EC50 (nM)), this compound displayed an EC50 of less than 10 nM.

Turning to `Cc1cnccc1-c1c(-c2cccc(C#N)c2)nc(N)c2nc(Cc3ccccn3)nn12` [Example 44, 3-(8-Amino-5-(3-methylpyridin-4-yl)-2-(pyridin-2-ylmethyl)-[1,2,4]triazolo[1,5-a]pyrazin-6-yl)benzonitrile], on Adenosine A2A (setting [2]), the Ki is less than 10 nM. This compound also displayed an EC50 in test [1] (A2B_cAMP_EC50 (nM)) of less than 10 nM.

Regarding `N#Cc1cccc(-c2nc(N)c3nc(Oc4ccccc4F)nn3c2-c2ccncn2)c1` [Example 39, 3-(8-Amino-2-(2-fluorophenoxy)-5-(pyrimidin-4-yl)-[1,2,4]triazolo[1,5-a]pyrazin-6-yl)benzonitrile], the Ki at Adenosine A2A (setting [2]) was less than 10 nM. This compound came in with an EC50 in test [1] (A2B_cAMP_EC50 (nM)) of less than 10 nM.

On to `Cc1cccnc1COc1nc2c(N)nc(-c3cccc(C#N)c3)c(-c3ccncn3)n2n1` [Example 119, 3-(8-amino-2-((3-methylpyridin-2-yl)methoxy)-5-(pyrimidin-4-yl)-[1,2,4]triazolo[1,5-a]pyrazin-6-yl)benzonitrile], for which the Ki on Adenosine A2A (setting [2]) is less than 10 nM. Besides, the EC50 in test [1] (A2B_cAMP_EC50 (nM)) was less than 10 nM.

`Cc1cnccc1-c1c(-c2cccc(C#N)c2)nc(N)c2nc(C(O)c3c(F)cccc3F)nn12` (single isomer, unassigned) [Example 108, 3-(8-amino-2-((2,6-difluorophenyl)(hydroxy)methyl)-5-(3-methylpyridin-4-yl)-[1,2,4]triazolo[1,5-a]pyrazin-6-yl)benzonitrile] showed a Ki at Adenosine A2A of less than 10 nM. In test [1] (A2B_cAMP_EC50 (nM)), this compound came in with an EC50 of less than 10 nM.

Take `CNC(c1nc2c(N)nc(-c3cccc(C#N)c3)c(-c3ocnc3C)n2n1)c1c(F)cccc1F` (stereo not drawn) [Example 78, 3-(8-amino-2-((2,6-difluorophenyl)(methylamino)methyl)-5-(4-methyloxazol-5-yl)-[1,2,4]triazolo[1,5-a]pyrazin-6-yl)benzonitrile]: the Ki at Adenosine A2A (setting [2]) was less than 10 nM. Further, the EC50 in test [1] (A2B_cAMP_EC50 (nM)) is less than 10 nM.

`Cc1nc(C(O)C(F)(F)F)c(-c2c(-c3cccc(C#N)c3F)nc(N)c3nc(Cc4ccccn4)nn23)o1` (stereo not drawn) [Example 88, 3-(8-amino-5-(2-methyl-4-(2,2,2-trifluoro-1-hydroxyethyl)oxazol-5-yl)-2-(pyridin-2-ylmethyl)-[1,2,4]triazolo[1,5-a]pyrazin-6-yl)-2-fluorobenzonitrile]: on Adenosine A2A (setting [2]), the Ki is less than 10 nM. For the same compound, in test [1] (A2B_cAMP_EC50 (nM)), the EC50 is 10 to 100 nM.

For `N#Cc1cccc(-c2nc(N)c3nc(C(O)c4cccc(F)c4F)nn3c2-c2ccncn2)c1` (single isomer, unassigned) [Example 54, 3-(8-Amino-2-((2,3-difluorophenyl)(hydroxy)methyl)-5-(pyrimidin-4-yl)-[1,2,4]triazolo[1,5-a]pyrazin-6-yl)benzonitrile], the Ki at Adenosine A2A (setting [3]) was less than 10 nM. Also, the EC50 in test [1] (read-out: A2B_cAMP_EC50) was less than 10 nM.
